Calls of active or inactive are those of the source. The rule behind the calls is not given here.
What was measured:
Bone marrow cell [1] = test: Antiproliferative activity against mouse bone marrow cell transformed with MLL-AF9 assessed as reduction in cell growth at 30 uM measured after 11 days by hemocytometry relative to control; type: functional; conditions: 264 h, time 11 day
Bone marrow cell [2] = test: Antiproliferative activity against mouse bone marrow cell transformed with E2A-HLF assessed as reduction in cell growth at 1 to 30 uM measured after 15 days by hemocytometry; type: functional, cell-based; conditions: dose 1-30 µM, time 15.0 day
[3] = molecular target: T1, Histone H3 methyltransferase DOT1 variant d (Mus musculus) (UniProt Q679P4); test: Inhibition of DOT1L in mouse bone marrow cell transformed with MLL-AF9 cells assessed as reduction in H3K79 methylation measured after 9 days by Western blot analysis; type: cell-based; conditions: dose 1-30 µM, time 9.0 day
T1 sequence (whole entry): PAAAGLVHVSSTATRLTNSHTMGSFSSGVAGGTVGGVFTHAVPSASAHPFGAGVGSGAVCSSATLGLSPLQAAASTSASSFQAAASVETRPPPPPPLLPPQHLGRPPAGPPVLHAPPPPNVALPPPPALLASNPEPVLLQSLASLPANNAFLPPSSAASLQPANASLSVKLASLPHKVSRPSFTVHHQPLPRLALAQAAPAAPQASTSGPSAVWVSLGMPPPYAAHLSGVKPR

Bone marrow cell [4] = test: Antiproliferative activity against mouse bone marrow cell transformed with MLL-AF9 assessed as reduction in cell growth measured after 11 days by hemocytometry; type: functional, cell-based; conditions: 264 h
[5] = molecular target: T2, Histone-lysine N-methyltransferase EHMT2 (Homo sapiens, UniProt Q96KQ7); test: Inhibition of recombinant human G9a using histone H3 (1 to 21) as substrate by hotspot assay
T2 sequence (Q96KQ7 whole entry): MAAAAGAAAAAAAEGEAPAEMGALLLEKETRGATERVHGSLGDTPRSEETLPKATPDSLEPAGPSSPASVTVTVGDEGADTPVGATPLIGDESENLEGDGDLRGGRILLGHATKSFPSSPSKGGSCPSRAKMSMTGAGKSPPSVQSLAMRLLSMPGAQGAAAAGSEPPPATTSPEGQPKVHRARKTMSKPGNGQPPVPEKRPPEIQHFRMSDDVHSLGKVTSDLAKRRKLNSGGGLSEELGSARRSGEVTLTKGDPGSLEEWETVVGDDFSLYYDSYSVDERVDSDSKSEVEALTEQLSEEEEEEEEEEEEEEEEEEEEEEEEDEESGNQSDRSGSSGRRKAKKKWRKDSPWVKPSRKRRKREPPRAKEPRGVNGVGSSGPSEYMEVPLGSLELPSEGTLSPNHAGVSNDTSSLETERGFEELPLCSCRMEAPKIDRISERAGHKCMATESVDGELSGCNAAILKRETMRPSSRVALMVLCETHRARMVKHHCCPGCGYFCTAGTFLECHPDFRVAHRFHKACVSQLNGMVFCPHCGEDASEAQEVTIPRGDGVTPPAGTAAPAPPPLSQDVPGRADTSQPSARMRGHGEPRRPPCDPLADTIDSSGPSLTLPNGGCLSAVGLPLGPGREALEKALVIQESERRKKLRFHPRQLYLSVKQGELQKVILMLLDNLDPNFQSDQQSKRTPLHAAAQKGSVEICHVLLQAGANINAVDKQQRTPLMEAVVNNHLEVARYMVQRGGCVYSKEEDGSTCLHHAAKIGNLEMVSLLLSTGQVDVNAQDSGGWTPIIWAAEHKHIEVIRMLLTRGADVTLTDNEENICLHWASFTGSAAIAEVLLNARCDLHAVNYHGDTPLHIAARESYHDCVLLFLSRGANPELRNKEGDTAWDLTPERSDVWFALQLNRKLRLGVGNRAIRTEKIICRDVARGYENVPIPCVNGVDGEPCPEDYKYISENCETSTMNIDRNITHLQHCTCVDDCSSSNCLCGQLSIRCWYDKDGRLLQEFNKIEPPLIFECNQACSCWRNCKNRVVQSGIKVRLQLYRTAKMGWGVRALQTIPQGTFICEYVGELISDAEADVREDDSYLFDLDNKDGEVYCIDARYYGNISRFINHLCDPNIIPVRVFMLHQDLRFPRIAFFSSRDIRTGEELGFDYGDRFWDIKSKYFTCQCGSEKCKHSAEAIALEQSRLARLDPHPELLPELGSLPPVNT

[6] = molecular target: Protein arginine N-methyltransferase 3 (Homo sapiens, UniProt O60678); test: Inhibition of recombinant human PRMT3 using histone H4 as substrate by hotspot assay; conditions: read-out: IC50
[7] = molecular target: Histone-lysine N-methyltransferase EZH2 (Homo sapiens, UniProt Q15910); test: Inhibition of recombinant human EZH2 using core histone as substrate by hotspot assay
Sequence of Histone-lysine N-methyltransferase EZH2 (Q15910 whole entry): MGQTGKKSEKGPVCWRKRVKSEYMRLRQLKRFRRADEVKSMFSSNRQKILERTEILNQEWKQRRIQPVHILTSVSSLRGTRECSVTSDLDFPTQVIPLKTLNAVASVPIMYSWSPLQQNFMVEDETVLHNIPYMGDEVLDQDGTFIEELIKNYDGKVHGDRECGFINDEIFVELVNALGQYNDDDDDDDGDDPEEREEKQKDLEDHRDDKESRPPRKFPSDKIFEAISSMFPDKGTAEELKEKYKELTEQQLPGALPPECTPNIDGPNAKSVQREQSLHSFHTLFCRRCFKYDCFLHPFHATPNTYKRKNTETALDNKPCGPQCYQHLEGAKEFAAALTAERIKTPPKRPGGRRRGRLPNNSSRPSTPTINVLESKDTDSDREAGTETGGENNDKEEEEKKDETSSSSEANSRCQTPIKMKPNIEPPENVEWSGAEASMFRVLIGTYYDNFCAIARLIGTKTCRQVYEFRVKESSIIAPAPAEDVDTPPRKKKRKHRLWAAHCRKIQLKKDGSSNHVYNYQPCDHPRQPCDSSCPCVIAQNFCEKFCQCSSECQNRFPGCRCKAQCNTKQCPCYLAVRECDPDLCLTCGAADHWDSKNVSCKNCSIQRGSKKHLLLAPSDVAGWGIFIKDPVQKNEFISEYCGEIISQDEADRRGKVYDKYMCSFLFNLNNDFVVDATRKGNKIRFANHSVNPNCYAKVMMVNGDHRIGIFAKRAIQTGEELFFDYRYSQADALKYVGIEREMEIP

Sequence of Protein arginine N-methyltransferase 3 (O60678 whole entry): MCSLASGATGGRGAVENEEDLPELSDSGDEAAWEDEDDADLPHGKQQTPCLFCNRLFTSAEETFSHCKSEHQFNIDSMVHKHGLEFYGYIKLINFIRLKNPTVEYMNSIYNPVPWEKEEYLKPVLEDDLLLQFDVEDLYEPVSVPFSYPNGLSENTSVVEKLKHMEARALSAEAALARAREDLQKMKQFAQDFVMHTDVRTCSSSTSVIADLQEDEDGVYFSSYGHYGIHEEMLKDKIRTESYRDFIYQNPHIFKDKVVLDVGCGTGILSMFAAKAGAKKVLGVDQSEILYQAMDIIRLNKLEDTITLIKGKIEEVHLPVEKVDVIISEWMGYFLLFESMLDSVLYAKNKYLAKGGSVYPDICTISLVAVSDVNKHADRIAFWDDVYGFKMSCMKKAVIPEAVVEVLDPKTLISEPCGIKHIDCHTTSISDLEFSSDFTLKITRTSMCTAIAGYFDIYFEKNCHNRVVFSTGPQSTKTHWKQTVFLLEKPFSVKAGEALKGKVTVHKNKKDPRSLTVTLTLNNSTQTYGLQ

With `CC(C)(C)c1ccc(NC(=O)c2ncn(CC(=O)NCCn3ccc4c(N)ncnc43)n2)cc1` the inhibition at 30 µM (Bone marrow cell [1]) was 100%, the inhibition (Bone marrow cell [2]) was “inactive” and the inhibition [3] was “Dose-dependent effect”. The IC50 (Bone marrow cell [4]) was 1 µM, the IC50 [5] was “Not Active” and the IC50 [6] was 115 µM. The IC50 [7] was “Not Active”.
